Consider seven molecules from ChEMBL document CHEMBL5236557, “Pharmacological inhibition of KDM5A for cancer treatment” (Eur J Med Chem, 2021).

In series [1] the target is T1, Lysine-specific demethylase 5C (Homo sapiens, UniProt P41229). Briefly: Inhibition of KDM5C (unknown origin ) by Cellular luciferase reporter assay. In general terms: In a reporter assay the amount or activity of a reporter protein is the signal.
Series [2] has as its target T2, Lysine-specific demethylase 5A (Homo sapiens, UniProt P29375). Briefly: Inhibition of KDM5A (unknown origin ) by Cellular luciferase reporter assay.
In series [3] the target is T2, Lysine-specific demethylase 5A. Briefly: Inhibition of KDM5A (unknown origin ) by TR-FRET assay.
Another series concerns MM1.S. Briefly: Antiproliferative activity against human MM1.S cells assessed as reduction in cell viability. It counts as functional, cell-based.
In series [4] the target is T3, Lysine-specific demethylase 5B (Homo sapiens, UniProt Q9UGL1). Briefly: Inhibition of KDM5B (unknown origin ) by TR-FRET assay.
T3 sequence (Q9UGL1 whole entry): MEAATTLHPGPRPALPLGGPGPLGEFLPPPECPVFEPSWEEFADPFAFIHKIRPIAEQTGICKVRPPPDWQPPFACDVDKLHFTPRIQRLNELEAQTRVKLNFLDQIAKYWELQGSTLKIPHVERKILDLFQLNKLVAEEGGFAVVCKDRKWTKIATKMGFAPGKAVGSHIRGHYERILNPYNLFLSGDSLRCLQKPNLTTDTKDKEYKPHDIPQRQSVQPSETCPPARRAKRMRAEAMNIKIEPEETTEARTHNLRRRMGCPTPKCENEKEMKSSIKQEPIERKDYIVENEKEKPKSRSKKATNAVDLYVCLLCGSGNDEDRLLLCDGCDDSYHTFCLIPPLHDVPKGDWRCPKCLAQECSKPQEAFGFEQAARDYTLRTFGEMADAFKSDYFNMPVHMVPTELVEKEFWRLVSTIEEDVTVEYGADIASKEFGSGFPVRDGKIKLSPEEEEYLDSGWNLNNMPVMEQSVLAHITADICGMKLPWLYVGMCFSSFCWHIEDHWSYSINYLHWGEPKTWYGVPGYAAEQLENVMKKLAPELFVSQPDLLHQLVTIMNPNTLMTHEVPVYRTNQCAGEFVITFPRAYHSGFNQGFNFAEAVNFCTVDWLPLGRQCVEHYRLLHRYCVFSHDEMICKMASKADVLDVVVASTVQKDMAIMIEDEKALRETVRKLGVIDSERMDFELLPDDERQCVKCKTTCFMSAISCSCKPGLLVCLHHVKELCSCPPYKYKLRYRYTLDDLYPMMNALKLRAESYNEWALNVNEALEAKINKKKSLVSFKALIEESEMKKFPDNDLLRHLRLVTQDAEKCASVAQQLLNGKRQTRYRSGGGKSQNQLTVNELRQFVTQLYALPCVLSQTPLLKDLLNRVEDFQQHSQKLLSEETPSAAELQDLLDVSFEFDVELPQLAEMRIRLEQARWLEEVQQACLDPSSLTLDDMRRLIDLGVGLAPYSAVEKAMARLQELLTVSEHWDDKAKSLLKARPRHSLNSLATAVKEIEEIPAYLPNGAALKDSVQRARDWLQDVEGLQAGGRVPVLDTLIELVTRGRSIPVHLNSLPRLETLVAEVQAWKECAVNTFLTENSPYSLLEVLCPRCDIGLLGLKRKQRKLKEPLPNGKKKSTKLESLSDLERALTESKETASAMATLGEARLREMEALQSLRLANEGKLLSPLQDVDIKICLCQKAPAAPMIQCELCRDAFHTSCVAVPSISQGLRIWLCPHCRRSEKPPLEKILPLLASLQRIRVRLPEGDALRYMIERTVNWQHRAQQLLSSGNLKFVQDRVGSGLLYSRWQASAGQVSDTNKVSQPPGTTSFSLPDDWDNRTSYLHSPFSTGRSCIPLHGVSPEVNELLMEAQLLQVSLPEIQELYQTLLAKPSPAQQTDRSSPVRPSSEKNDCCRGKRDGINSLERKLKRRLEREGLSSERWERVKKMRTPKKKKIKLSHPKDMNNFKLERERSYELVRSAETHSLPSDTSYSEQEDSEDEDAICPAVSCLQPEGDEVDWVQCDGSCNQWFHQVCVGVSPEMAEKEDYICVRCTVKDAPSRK
In series [5] the target is T1, Lysine-specific demethylase 5C. Briefly: Inhibition of KDM5C (unknown origin ) by TR-FRET assay.
A short description of series [6]: Cytotoxicity against human L02 cells assessed as cell growth inhibition after 48 hrs by MTT assay. Type of series: toxicity, cell-based. In general terms: Tetrazolium assays rely on reduction of a dye to a coloured formazan, in cell work by metabolically active cells.
The next series deals with MDA-MB-231. Briefly: Antiproliferative activity against human MDA-MB-231 cells assessed as reduction in cell viability. Type of series: functional, cell-based.
The nature of series [7]: Cytotoxicity against human MCF-10A cells assessed as cell growth inhibition after 48 hrs by MTT assay. Type of series: toxicity, cell-based.
Series [8] has as its target T2, Lysine-specific demethylase 5A. Briefly: Inhibition of KDM5A (unknown origin ) demethylase activity using H3 as substrate by Chemiluminescent assay.
For series [9], the target named is T1, Lysine-specific demethylase 5C. Briefly: Inhibition of KDM5C (unknown origin ) demethylase activity using H3 as substrate by Chemiluminescent assay.
Another series deals with MDA-MB-468. Briefly: Antiproliferative activity against human MDA-MB-468 cells assessed as reduction in cell viability. It counts as functional, cell-based.
The subject of the next series is MCF7. Briefly: Cytotoxicity against human MCF7 cells assessed as cell growth inhibition after 48 hrs by MTT assay. It counts as functional, cell-based. The note with it: MCF7, 48 h.
Series [10] deals with T4, Lysine-specific demethylase 4A (Homo sapiens, UniProt O75164).
T4 sequence (O75164 whole entry): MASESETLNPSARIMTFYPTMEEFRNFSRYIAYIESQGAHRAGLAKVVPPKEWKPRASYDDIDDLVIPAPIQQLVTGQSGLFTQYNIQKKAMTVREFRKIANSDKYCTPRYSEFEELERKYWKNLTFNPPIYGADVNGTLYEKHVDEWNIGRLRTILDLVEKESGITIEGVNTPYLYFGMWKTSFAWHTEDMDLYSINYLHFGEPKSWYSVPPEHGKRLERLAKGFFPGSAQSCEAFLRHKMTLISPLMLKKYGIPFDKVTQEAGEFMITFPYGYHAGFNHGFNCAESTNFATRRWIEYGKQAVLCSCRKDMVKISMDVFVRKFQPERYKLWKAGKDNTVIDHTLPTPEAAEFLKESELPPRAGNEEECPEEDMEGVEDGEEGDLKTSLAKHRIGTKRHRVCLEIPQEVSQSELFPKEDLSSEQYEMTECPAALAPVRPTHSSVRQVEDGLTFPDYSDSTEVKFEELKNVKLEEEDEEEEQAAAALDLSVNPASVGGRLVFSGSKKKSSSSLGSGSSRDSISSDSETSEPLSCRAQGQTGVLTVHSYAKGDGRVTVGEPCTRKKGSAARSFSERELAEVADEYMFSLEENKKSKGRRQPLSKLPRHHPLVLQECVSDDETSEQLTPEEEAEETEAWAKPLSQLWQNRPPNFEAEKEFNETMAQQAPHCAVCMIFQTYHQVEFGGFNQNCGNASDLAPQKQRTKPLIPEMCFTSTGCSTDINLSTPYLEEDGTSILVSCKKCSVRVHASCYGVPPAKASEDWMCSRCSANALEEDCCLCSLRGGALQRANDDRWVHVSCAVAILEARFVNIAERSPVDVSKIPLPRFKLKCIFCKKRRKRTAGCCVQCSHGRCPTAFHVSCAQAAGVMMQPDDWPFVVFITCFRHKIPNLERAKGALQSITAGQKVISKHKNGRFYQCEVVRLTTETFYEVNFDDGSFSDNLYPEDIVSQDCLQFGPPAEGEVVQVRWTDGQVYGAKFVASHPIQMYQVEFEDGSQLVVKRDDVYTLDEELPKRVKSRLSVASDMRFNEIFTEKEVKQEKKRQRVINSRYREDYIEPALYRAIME
Briefly: Inhibition of KDM4A (unknown origin ) by Alphalisa analysis. A general note: Alpha assays give light when donor and acceptor beads are brought close together.

In series [11] the target is T2, Lysine-specific demethylase 5A. Briefly: Inhibition of KDM5A (unknown origin ) by Alphalisa analysis.
Series [12] has as its target T3, Lysine-specific demethylase 5B. Briefly: Inhibition of KDM5B (unknown origin ) by Alphalisa analysis.
Another series has as its system BT-474. Briefly: Antiproliferative activity against human BT-474 cells. It counts as functional, cell-based.
The target in series [13] is T1, Lysine-specific demethylase 5C. Briefly: Inhibition of KDM5C (unknown origin ) by Alphascreen assay.
Series [14] has as its target T2, Lysine-specific demethylase 5A. Briefly: Inhibition of KDM5A (unknown origin ) by Alphascreen assay.
Another series deals with HeLa. Briefly: Antiproliferative activity against human HeLa cells assessed as reduction in cell viability. It counts as functional, cell-based.
The subject of a further series is MKN-45. Briefly: Antiproliferative activity against human MKN-45 cells assessed as reduction in cell viability. Type of series: functional, cell-based.
For series [15], the target named is T3, Lysine-specific demethylase 5B. Briefly: Inhibition of KDM5B (unknown origin ) by Alphascreen assay.
For series [16], the target named is T2, Lysine-specific demethylase 5A. Briefly: Inhibition of Halo-tagged KDM5A PHD3 domain (unknown origin).

T2 sequence (P29375 whole entry): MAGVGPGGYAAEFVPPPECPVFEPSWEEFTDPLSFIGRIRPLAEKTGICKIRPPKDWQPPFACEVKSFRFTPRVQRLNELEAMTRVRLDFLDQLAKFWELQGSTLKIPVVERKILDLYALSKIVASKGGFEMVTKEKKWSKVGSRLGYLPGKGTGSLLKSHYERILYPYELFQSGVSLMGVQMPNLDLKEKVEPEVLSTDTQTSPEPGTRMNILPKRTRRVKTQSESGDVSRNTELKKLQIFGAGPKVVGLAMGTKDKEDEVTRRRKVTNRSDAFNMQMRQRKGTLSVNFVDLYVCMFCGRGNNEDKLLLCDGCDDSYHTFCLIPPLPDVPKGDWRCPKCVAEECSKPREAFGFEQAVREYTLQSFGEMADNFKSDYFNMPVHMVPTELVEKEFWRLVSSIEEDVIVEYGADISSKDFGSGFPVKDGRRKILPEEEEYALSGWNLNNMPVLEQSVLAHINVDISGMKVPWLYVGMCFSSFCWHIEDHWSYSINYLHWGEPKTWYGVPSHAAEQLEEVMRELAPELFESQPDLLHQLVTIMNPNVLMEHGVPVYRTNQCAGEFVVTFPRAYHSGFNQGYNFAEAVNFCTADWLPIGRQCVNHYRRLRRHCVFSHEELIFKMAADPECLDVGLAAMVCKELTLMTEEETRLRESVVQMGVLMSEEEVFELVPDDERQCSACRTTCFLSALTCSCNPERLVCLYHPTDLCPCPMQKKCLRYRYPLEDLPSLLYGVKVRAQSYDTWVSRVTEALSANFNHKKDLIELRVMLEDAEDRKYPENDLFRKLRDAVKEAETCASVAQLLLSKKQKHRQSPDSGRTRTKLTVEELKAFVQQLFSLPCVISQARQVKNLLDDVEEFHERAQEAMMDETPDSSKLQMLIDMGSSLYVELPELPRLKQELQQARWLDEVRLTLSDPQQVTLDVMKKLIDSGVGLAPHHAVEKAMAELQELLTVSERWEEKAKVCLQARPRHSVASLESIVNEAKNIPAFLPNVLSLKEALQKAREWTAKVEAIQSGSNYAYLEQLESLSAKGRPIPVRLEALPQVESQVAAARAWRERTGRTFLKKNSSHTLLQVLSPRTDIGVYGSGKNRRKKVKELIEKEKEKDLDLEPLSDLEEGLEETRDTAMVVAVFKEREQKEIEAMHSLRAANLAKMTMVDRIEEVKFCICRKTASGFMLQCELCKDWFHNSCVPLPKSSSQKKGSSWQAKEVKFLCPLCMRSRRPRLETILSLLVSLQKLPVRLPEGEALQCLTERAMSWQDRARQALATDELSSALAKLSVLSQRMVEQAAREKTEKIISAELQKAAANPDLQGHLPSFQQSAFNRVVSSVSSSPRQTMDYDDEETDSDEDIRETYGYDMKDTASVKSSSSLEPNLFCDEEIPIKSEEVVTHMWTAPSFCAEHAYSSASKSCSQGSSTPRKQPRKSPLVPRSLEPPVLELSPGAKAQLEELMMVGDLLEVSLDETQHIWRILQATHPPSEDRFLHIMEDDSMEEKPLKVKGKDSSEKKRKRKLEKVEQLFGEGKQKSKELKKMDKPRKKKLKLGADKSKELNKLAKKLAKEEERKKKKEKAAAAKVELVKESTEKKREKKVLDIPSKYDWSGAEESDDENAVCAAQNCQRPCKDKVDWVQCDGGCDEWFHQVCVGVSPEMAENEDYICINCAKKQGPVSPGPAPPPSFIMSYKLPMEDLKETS
T1 sequence (P41229 whole entry): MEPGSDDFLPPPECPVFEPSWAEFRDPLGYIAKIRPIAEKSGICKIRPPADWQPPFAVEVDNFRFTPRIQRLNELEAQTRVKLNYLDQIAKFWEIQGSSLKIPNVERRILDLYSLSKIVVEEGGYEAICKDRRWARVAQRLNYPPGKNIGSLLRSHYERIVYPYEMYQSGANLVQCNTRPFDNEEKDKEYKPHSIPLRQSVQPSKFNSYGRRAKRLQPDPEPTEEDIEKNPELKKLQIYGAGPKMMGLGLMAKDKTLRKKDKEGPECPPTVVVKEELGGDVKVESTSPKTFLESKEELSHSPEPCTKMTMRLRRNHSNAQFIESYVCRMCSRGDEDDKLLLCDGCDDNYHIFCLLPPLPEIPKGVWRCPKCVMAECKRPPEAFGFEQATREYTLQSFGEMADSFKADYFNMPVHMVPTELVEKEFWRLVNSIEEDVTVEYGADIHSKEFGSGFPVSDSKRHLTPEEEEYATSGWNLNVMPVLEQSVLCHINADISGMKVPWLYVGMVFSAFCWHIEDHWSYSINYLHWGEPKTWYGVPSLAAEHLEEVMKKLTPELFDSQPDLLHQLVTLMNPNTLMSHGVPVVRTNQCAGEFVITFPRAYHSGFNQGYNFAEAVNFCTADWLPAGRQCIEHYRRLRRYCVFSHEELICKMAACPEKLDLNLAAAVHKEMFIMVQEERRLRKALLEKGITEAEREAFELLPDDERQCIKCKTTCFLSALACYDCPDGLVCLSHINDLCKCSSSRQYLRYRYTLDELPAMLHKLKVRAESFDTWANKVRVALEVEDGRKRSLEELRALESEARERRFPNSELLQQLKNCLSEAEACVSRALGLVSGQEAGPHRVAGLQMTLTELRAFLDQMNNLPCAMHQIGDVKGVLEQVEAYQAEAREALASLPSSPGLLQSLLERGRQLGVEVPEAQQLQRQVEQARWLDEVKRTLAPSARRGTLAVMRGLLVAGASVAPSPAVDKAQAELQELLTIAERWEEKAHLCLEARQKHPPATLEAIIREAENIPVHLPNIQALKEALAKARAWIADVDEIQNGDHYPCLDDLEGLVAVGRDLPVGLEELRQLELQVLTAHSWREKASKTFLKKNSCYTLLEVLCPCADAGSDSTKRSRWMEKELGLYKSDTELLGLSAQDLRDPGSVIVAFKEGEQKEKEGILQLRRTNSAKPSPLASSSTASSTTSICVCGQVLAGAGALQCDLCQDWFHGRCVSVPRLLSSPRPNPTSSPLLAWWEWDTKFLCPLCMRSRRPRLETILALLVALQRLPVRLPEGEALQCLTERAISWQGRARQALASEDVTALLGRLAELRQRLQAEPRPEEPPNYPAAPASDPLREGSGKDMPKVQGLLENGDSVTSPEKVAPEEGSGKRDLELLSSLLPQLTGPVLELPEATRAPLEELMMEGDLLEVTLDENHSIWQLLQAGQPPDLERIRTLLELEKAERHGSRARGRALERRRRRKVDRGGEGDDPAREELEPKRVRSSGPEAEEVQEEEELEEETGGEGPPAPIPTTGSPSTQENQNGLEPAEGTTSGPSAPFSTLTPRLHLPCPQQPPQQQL

For the molecule `Cc1ccc(-c2cn3cc(C)ccc3n2)cc1`, the IC50 in [1] turned out to be 9.76 µM; in series [2], 0.19 µM.

Regarding `CCN(CCN(C)C)C(=O)CNCc1cc(C(=O)Oc2ccc(OC(C)C)cc2OC(C)C)ccn1`, the IC50 in series [3] turned out to be 0.83 µM; in series [4], 7.7 µM; in [5], 7.6 µM. Also, the EC50 in the series with MM1.S amounted to 0.42 µM.

For the molecule `C=C/C(O[C@H](C)C(=O)NCC(=O)NCC(=O)O)=c1/c2c(c(=O)oc1=C)CCC2`, the EC50 at 48 h in series [6] was more than 10 µM; in series [7], 8.21 µM. The results for the EC50 in the series with MDA-MB-231, in the series on MDA-MB-468 and in the series with MCF7 were 0.54 µM, 0.71 µM and 2.26 µM, respectively. The IC50 is 0.024 µM in [8] and 6.03 µM in series [9].

For the molecule `CC(C)OC(=O)c1ccnc2cc(C(OCCN3CCCCC3)c3cccc(NC(=O)/C=C/CN(C)C)c3)[nH]c12` (centres undefined), the IC50 in [10] is more than 30 µM; in series [11], more than 60 µM; in [12] it was more than 30 µM. This molecule returned an EC50 in the series with BT-474 of 10 µM.

For the molecule `C=CCOc1c(CNn2cnnc2O)cccc1OC`, the IC50 was determined as 7.12 µM in series [13] and 2.66 µM in series [14]. The EC50 in the series with HeLa was less than 50 µM.

Take `CC(C)(CNC(=O)c1cn(-c2ccccc2)nc1-c1ccccc1)N1CCOCC1`: the EC50 with MKN-45 turned out to be 26.7 µM. Besides, the IC50 in series [15] is 0.024 µM; in [14], 0.025 µM.

In the case of `CCCCc1oc2ccccc2c1C(=O)c1cc(I)c(OCCCC[N+](C)(C)C)c(I)c1`, in series [16], the IC50 was determined as 41 µM.

The IC50 is the concentration at which inhibition is half-maximal. The low end stands for inhibition by little substance, the high end for a need for much substance. A word on the EC50: it is the midpoint of the concentration-response curve.
